Data as given in US10030020B2, “Spirocycle compounds and methods of making and using same” (Abide Therapeutics, Inc., priority 2016, dated 2018).

Assays:
MAGL [1] = molecular target: T1, MAGL (Mus musculus (Mouse), UniProt O35678); assay: In vitro competitive activity-based protein profiling (mouse brain membrane fraction or cell lysates), MAGL band; assay type: biochemical; conditions: mouse proteome; for inhibition at 1 µM: read-out: MAGL % Inh 1 μM (mouse); for IC50: competitive ABPP
Description: In Vitro Competitive Activity-Based Protein Profiling.
Proteomes (mouse brain membrane fraction or cell lysates) (50 μL, 1.0 mg/mL total protein concentration) were preincubated with varying concentrations of inhibitors at 37° C. After 30 min, FP—Rh (1.0 μL, 50 μM in DMSO) was added and the mixture was incubated for another 30 min at 37° C. Reactions were quenched with SDS loading buffer (50 μL-4×) and run on SDS-PAGE.

ABHD6 [2] = molecular target: T2, ABHD6 (Mus musculus (Mouse), UniProt Q8R2Y0); assay: In vitro competitive activity-based protein profiling (mouse brain membrane fraction or cell lysates), ABHD6 band; assay type: biochemical; conditions: mouse proteome; for inhibition at 1 µM: read-out: ABHD6 % Inh 1 μM (mouse); for IC50: competitive ABPP
Procedure, shortened: (§1)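 Mouse proteome samples (brain membrane fraction or cell lysate, 1.0 mg/mL protein) were pretreated with varying inhibitor concentrations and subsequently probed with fluorophosphonate-rhodamine, each step lasting 30 min at 37° C. Labelled proteins were separated by SDS-PAGE, and band fluorescence was imaged and quantified.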

FAAH [3] = molecular target: T3, FAAH (Mus musculus (Mouse), UniProt O08914); assay: In vitro competitive activity-based protein profiling (mouse brain membrane fraction or cell lysates), FAAH band; assay type: biochemical; conditions: mouse proteome; for inhibition at 1 µM: read-out: FAAH % Inh 1 μM (mouse); for IC50: competitive ABPP
Procedure, shortened: as §1

MAGL [4] = molecular target: T1, MAGL; assay: Mouse brain proteomes from inhibitor treated mice (oral gavage, sacrificed 4 h after administration, ABPP analysis); assay type: in vivo, mouse (C57Bl/6J); conditions: 5 mg/kg oral gavage
Description: (§2) Preparation of Mouse Brain Proteomes from Inhibitor Treated Mice.
(§3) Inhibitors were administered to wild-type C57Bl/6J by oral gavage in a vehicle, e.g. PEG400/Ethanol/PBS (7/2/1). Each animal was sacrificed 4 h following administration and brain proteomes were prepared and analyzed according to previously established methods (See Niphakis, M. J., et al. (2011) ACS Chem. Neurosci. and Long, J. Z., et al. Nat. Chem. Biol. 5:37-44). Data from this assay is shown in Table 2 (% inhibition at 5 mg/kg).

FAAH [5] = molecular target: T3, FAAH; assay: Mouse brain proteomes from inhibitor treated mice (oral gavage, sacrificed 4 h after administration, ABPP analysis), FAAH; assay type: in vivo, mouse (C57Bl/6J); conditions: 5 mg/kg oral gavage
Description: as §2, §3

ABHD6 [6] = molecular target: T2, ABHD6; assay: Mouse brain proteomes from inhibitor treated mice (oral gavage, sacrificed 4 h after administration, ABPP analysis), ABHD6; assay type: in vivo, mouse (C57Bl/6J); conditions: 5 mg/kg oral gavage
Description: as §2, §3

T1 sequence (O35678 whole entry): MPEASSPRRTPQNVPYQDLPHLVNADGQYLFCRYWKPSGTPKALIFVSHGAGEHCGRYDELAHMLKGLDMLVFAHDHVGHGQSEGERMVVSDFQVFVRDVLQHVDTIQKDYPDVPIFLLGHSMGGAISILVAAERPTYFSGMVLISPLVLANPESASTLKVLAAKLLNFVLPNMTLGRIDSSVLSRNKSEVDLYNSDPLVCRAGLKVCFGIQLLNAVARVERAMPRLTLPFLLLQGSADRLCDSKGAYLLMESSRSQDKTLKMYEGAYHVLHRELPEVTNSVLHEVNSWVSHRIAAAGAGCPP
T2 sequence (Q8R2Y0 whole entry): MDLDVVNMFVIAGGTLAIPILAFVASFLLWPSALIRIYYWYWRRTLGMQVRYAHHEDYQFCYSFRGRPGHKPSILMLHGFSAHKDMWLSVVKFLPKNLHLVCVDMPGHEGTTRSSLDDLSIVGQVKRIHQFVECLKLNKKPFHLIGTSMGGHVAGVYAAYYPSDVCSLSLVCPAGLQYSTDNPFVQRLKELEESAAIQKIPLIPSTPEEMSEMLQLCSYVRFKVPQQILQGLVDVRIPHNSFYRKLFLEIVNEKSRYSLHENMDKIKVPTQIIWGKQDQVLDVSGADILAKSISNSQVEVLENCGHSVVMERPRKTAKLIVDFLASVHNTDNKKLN
T3 sequence (O08914 whole entry): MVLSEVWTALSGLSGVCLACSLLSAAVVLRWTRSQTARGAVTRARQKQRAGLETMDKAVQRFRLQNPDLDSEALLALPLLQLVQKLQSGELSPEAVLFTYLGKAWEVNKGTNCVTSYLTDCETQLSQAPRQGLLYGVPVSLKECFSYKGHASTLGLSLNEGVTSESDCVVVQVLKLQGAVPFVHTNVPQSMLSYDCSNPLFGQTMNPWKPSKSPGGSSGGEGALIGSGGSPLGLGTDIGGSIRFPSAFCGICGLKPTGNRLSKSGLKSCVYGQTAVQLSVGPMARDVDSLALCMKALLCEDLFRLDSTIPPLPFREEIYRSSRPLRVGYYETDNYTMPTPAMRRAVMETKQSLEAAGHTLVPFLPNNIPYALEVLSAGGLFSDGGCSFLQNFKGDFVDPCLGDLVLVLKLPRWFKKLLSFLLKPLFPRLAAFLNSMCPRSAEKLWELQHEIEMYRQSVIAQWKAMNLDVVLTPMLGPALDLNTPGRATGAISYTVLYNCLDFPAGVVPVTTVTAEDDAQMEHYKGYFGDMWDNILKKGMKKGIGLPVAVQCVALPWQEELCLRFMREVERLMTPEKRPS

SMILES | inhibition at 1 µM (MAGL [1]) [%] | IC50 (MAGL [1]) [nM] | inhibition at 1 µM (ABHD6 [2]) [%] | IC50 (ABHD6 [2]) [nM] | inhibition at 1 µM (FAAH [3]) [%] | IC50 (FAAH [3]) [nM] | MAGL % Inh 5 mg/kg (mouse) (MAGL [4]) | FAAH % Inh 5 mg/kg (mouse) (FAAH [5]) | ABHD6 % Inh 5 mg/kg (mouse) (ABHD6 [6])
O=C(OC(C(F)(F)F)C(F)(F)F)N1CCC2(CCN(Cc3ccc(C(F)(F)F)cc3N3CCCCC3)C2)CC1 [Example 23, 1,1,1,3,3,3-Hexafluoropropan-2-yl 2-(2-(piperidin-1-yl)-4-(trifluoromethyl)benzyl)-2,8-diazaspiro[4.5]decane-8-carboxylate] | > 75 | < 100 | < 25 | > 1000 | < 25 | > 1000 | ## (## is equal to or greater than 25% but less than 75%) | # (# is <25%) | # (# is <25%)
O=C(OC(C(F)(F)F)C(F)(F)F)N1CCC2(CCN(Cc3ccc(Cl)cc3N3CCCCC3)C2)CC1 [Example 24, 1,1,1,3,3,3-Hexafluoropropan-2-yl 2-(4-chloro-2-(piperidin-1-yl)benzyl)-2,8-diazaspiro[4.5]decane-8-carboxylate] | > 75 | < 100 | < 25 | > 1000 | < 25 | > 1000 | ### (### is ≥75%) | # (# is <25%) | # (# is <25%)
O=C(OC(C(F)(F)F)C(F)(F)F)N1CCC2(CCN(Cc3ccc(Cl)cc3N3CC4COCC4C3)C2)CC1 (stereo not drawn) [Example 25, 1,1,1,3,3,3-Hexafluoropropan-2-yl 2-(4-chloro-2-(tetrahydro-1H-furo[3,4-c]pyrrol-5(3H)-yl)benzyl)-2,8-diazaspiro[4.5]decane-8-carboxylate] | > 75 | < 100 | ≥ 75 | 100 to 1000 | < 25 | > 1000 | ## (## is equal to or greater than 25% but less than 75%) | # (# is <25%) | # (# is <25%)
O=C(OC(C(F)(F)F)C(F)(F)F)N1CCC2(CCN(Cc3ccc(C(F)(F)F)cc3N3CC4COCC4C3)C2)CC1 (stereo not drawn) [Example 26, 1,1,1,3,3,3-Hexafluoropropan-2-yl 2-(2-(tetrahydro-1H-furo[3,4-c]pyrrol-5(3H)-yl)-4-(trifluoromethyl)benzyl)-2,8-diazaspiro[4.5]decane-8-carboxylate] | > 75 | < 100 | ≥ 75 | 100 to 1000 | < 25 | > 1000 | ## (## is equal to or greater than 25% but less than 75%) | # (# is <25%) | # (# is <25%)
O=C(OC(C(F)(F)F)C(F)(F)F)N1CCC2(CCCN2Cc2ccc(F)c(OCCF)c2)CC1 [Example 29, 1,1,1,3,3,3-Hexafluoropropan-2-yl 1-(4-fluoro-3-(2-fluoroethoxy)benzyl)-1,8-diazaspiro[4.5]decane-8-carboxylate] | > 75 | < 100 | ≥ 75 | > 1000 | < 25 | > 1000 | ### (### is ≥75%) | ## (## is equal to or greater than 25% but less than 75%) | ### (### is ≥75%)

Now from value to molecule:

inhibition at 1 µM (MAGL [1]) [%] | IC50 (MAGL [1]) [nM] | inhibition at 1 µM (ABHD6 [2]) [%] | IC50 (ABHD6 [2]) [nM] | inhibition at 1 µM (FAAH [3]) [%] | IC50 (FAAH [3]) [nM] | MAGL % Inh 5 mg/kg (mouse) (MAGL [4]) | FAAH % Inh 5 mg/kg (mouse) (FAAH [5]) | ABHD6 % Inh 5 mg/kg (mouse) (ABHD6 [6]) | SMILES
– | 100 to 1000 | – | > 1000 | – | > 1000 | ### (### is ≥75%) | # (# is <25%) | # (# is <25%) | O=C(OC(C(F)(F)F)C(F)(F)F)N1CCC2(CCCN2Cc2cccc(OCCF)c2)CC1 [Example 27, 1,1,1,3,3,3-Hexafluoropropan-2-yl 1-(3-(2-fluoroethoxy)benzyl)-1,8-diazaspiro[4.5]decane-8-carboxylate]
– | < 100 | – | > 1000 | – | > 1000 | ### (### is ≥75%) | # (# is <25%) | # (# is <25%) | O=C(OC(C(F)(F)F)C(F)(F)F)N1CCC2(CCCN2Cc2ccc(Cl)c(OCCF)c2)CC1 [Example 28, 1,1,1,3,3,3-Hexafluoropropan-2-yl 1-(4-chloro-3-(2-fluoroethoxy)benzyl)-1,8-diazaspiro[4.5]decane-8-carboxylate]
